# Measured values published in publication PMC3983056 (PLoS Pathogens, 2014).
# Where “and” joins values, the source holds several entries; their conditions need not be identical. Equal entries are not always repeated. Where two headings read alike, the source gives them in different places.
# Assays:
# [1] = target: T1, human HDAC-11 (Homo sapiens, UniProt Q96DB2); experiment: HDAC inhibition assay; type: biochemical
# T1 construct: purchased Reaction Biology Corporation (Malvern, PA)
# Experimental: (§1) Determination of HDACi potency against individual HDAC enzymes was performed at Reaction Biology Corporation (Malvern, PA). In brief, human HDAC-1 to -11 enzymes were incubated with serial dilutions of HDACi and fluorogenic peptide substrates (50 µM) in a 96-well format assay. […] Fluorogenic peptide Boc-Lys(trifluoroacetyl)-AMC was used as a substrate for HDAC enzymes 4, 5, 7, and 9.
# [2] = target: T2, human HDAC-7 (Homo sapiens, UniProt Q8WUI4); experiment: HDAC inhibition assay; type: biochemical
# T2 construct: purchased Reaction Biology Corporation (Malvern, PA)
# Experimental: as §1
# [3] = tested on: HIV expressing a luciferase reporter gene (NL4-3-Luc) in latently infected primary CD4 T cells; experiment: microbe, parasite or virus in culture; type: cell-based; settings: Human immunodeficiency virus 1, NL43, CD4+ T, 48 h, continuous 48 hours, cells from three healthy donors, mean ± SD
# Source text: To assess clinically tested HDACi for their ability to activate HIV from latency, we first employed a previously described in vitro HIV latency model, [30] with several modifications to increase the sensitivity of detection. The assay involves freshly isolated naïve CD4 T cells from healthy donors polarized to a Th0 phenotype, which mimics memory CD4 T cells. These Th0 cells are then infected with HIV expressing a luciferase reporter gene and cultured for an additional 7 to 10 days until a latent infection is established.
# Total peripheral blood mononuclear cells (PBMCs) were obtained from healthy HIV-negative donors by leukapheresis (AllCells, Inc, Emeryville, CA). […] Purified naive CD4+ T cells were activated by incubation with anti-CD3/CD28 magnetic Dynabeads (1 bead: 2 cells ratio, Life Technologies), 1 µg/ml anti-IL-4 (R&D Systems, Minneapolis, MN), 2 µg/ml anti-IL-12p70 antibodies (R&D Systems), and 10 ng/ml TGF-β (R&D Systems) for 3 days, [59]. Following the removal of anti-CD3/CD28 beads and antibodies, cells were maintained in 30 U/ml IL-2 (Life Technologies) for 2 days. Cells were then infected with NL4.3-Luc in the presence of 50 µg/ml DEAE for 3 hours. Cells were maintained in the continued presence of 30 U/ml IL-2 throughout the infection and subsequent rest period with culture medium with fresh IL-2 replaced every 2–3 days. Seven days post-infection, 20 µl of latently infected cells were dispensed into 384 well plates using a MicroFlo dispenser (Biotek Insturments, VT) at 10,000 cells/well containing 100 nl of compound solutions delivered by the Echo acoustic-based liquid dispenser (Labcyte, Sunnyvale, CA). After a 48-hour incubation, 16 µl/well BriteGlo (Promega, Madison, WI) was added and luminescence measured using the Envision plate reader (Perkin Elmer, Waltham, MA). Compound-associated cytotoxicity was determined in latently infected cells in parallel with the virus activation assay. Cells were incubated with compounds for 48 hours at 37°C, and cell viability was determined using Cell Titer Glo reagent (Promega).
# [4] = target: T3, human HDAC-9 (Homo sapiens, UniProt Q9UKV0); experiment: HDAC inhibition assay; type: biochemical
# T3 construct: purchased Reaction Biology Corporation (Malvern, PA)
# Experimental: as §1
# [5] = tested on: latent HIV in resting CD4 T cells from HIV-infected patients on suppressive cART; type: cell-based; settings: for HIV RNA avg: 40 nM RMD, one value per donor; for HIV RNA [copies/mil cells] avg: Figure 5
# Experimental: To examine the kinetics of HIV induction, we analyzed cell-associated viral RNA levels at 6, 12, 24, and 48 hours after treatment initiation.
# Lysates were filtered through a Qiashredder (Qiagen).
# [6] = tested on: CD4+ T cells, CD8+ T cells and CD19+ B cells in PBMCs from HIV-infected subjects; experiment: Cell activation analysis by flow cytometry, PBMC cultures; type: cell-based, human; settings: 4-hour pulse of 15 or 40 nM RMD, any cell subset
# Experimental: HIV latency reversing agents that would be suitable for the therapeutic use in vivo should not induce non-specific immune activation.
# For cell activation analysis, either complete PBMC cultures or resting CD4+ T cells isolated from HIV-infected cART-suppressed patients were incubated with the tested agents under specified conditions and were stained with relevant antibodies. All antibodies were purchased from BD Biosciences and included Alexa Fluor 700-labeled antibody to CD4, APC-H7-labeled antibody to CD8, PE-Cy7 -labeled antibody to CD19, PE-labeled antibody to CD69, APC-labeled antibody to CD25, and V450-labeled antibody to HLA-DR. Live cells were gated by forward and side scatter and exclusion of the dead cells by Live/Dead Fixable Aqua Stain (Invitrogen). Marker staining was assessed by flow cytometry analysis on a LSR Fortessa with data processing using FlowJo software.
# [7] = tested on: HIV gag-pol RNA from resting CD4 T cells of a cART-suppressed patient; experiment: Single-genome sequencing of HIV RNA in culture supernatants; type: cell-based; settings: 2.5 nM RMD, continuous, day 7
# Source text: In parallel, we assessed the sequence diversity of HIV proviruses integrated in genomic DNA of resting CD4 T cells from the same culture.
# Figure 8 Phylogenetic analysis of HIV sequences expressed ex vivo following the latency reversal. […] Single-genome sequencing was used to analyze patient HIV proviral DNA and plasma RNA at the initiation of treatment (day 0), together with the ex vivo induced HIV RNA in cell culture supernatants at the end of treatment (day 7). […] Identified HIV DNA and RNA sequences were aligned and the phylogenetic tree was constructed using Clustal W and MEAG5.
# Single-genome sequencing of a portion of HIV-1 gag-pro-pol amplified from cell culture supernatants or cellular DNA extracts was performed as previously described [34]–[36]. Sequences were aligned using ClustalW and neighbor-joining phylogenetic analysis was performed using MEGA5. Trees were rooted on the subtype B consensus sequence (www.hiv.lanl.gov).
# T3 sequence (Q9UKV0 whole entry): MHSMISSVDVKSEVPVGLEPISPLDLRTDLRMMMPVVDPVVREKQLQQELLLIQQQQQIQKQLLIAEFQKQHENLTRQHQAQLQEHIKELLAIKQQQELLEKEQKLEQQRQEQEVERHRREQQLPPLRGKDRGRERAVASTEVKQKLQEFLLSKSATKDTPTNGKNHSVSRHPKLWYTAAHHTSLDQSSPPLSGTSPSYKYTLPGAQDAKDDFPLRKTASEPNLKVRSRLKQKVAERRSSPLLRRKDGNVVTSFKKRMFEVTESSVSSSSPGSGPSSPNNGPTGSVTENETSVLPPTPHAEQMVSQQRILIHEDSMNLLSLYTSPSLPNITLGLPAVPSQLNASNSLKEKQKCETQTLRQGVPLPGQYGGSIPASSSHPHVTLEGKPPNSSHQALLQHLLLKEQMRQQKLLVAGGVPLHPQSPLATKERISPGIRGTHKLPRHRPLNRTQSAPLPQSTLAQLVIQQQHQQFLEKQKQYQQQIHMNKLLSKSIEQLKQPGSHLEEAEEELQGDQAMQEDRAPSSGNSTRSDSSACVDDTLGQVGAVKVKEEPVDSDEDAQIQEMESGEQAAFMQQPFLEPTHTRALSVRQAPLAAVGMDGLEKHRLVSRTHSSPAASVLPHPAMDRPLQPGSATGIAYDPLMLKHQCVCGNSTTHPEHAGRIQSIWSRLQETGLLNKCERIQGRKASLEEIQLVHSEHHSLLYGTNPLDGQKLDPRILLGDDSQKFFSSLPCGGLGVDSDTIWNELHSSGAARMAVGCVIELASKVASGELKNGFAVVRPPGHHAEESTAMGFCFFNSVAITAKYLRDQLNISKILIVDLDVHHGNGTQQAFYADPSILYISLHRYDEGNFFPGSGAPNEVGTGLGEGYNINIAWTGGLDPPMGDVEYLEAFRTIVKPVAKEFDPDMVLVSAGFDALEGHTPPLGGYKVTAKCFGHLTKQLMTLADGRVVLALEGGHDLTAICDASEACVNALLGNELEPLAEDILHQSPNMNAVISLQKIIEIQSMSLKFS
# T1 sequence (Q96DB2 whole entry): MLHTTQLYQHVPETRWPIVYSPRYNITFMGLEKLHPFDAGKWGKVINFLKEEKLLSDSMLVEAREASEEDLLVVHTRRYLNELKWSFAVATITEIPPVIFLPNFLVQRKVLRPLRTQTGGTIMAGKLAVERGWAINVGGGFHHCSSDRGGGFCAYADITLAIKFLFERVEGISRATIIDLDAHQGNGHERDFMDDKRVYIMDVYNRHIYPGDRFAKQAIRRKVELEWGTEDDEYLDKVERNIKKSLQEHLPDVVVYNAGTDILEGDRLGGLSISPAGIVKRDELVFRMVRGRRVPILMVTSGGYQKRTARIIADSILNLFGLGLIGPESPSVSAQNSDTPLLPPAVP
# T2 sequence (Q8WUI4 whole entry): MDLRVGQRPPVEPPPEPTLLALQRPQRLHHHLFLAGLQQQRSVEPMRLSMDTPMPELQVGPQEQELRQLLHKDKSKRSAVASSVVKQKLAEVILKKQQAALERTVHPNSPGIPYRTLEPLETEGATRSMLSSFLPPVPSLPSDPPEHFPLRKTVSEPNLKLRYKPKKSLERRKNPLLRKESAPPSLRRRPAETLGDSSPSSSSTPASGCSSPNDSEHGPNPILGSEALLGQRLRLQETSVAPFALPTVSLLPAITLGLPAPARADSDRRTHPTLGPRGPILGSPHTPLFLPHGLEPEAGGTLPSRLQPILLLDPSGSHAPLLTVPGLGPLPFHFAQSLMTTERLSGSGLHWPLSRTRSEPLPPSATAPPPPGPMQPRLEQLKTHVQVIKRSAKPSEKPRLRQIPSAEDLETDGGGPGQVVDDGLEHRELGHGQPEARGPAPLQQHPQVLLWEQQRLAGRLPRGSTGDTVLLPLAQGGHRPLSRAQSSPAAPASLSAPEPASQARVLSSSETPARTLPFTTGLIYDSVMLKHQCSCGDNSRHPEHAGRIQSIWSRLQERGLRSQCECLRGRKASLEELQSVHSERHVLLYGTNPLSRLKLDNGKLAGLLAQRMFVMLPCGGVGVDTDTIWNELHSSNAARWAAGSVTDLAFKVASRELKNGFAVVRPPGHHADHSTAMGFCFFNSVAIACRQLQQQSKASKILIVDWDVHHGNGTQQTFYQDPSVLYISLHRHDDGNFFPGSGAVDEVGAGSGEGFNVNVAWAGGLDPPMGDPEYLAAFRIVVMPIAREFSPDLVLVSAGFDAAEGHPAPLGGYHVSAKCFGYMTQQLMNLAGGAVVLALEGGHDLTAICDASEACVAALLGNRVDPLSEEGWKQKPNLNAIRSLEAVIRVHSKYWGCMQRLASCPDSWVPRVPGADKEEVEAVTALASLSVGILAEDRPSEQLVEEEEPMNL
smiles,measurement,setting,value
"C/C=C1\NC(=O)[C@H]2CSSCC/C=C/[C@H](CC(=O)N[C@H](C(C)C)C(=O)N2)OC(=O)[C@H](C(C)C)NC1=O [RMD, romidepsin]",IC50,[1],0.407 nM
same,IC50,[2],3400 nM
same,EC50,[3],4.5 ± 1 nM
same,IC50,[4],8910 nM
same,HIV RNA avg,"[5]; Figure 2B, 6hr",9642 copies/mil cells and 324 copies/mil cells and 14747 copies/mil cells and 6687 copies/mil cells and 2352 copies/mil cells
same,HIV RNA avg,"[5]; Figure 2B, 12hr",6663 copies/mil cells and 352 copies/mil cells and 13013 copies/mil cells and 9057 copies/mil cells and 2763 copies/mil cells
same,HIV RNA avg,"[5]; Figure 2B, 24hr",8902 copies/mil cells and 542 copies/mil cells and 17191 copies/mil cells and 14960 copies/mil cells and 4744 copies/mil cells
same,HIV RNA avg,"[5]; Figure 2B, 48hr",3882 copies/mil cells and 831 copies/mil cells and 21497 copies/mil cells and 14409 copies/mil cells and 7107 copies/mil cells
same,HIV RNA avg,"[5]; Figure 4, 6 hours",6481 copies/mil cells and 2385 copies/mil cells
same,HIV RNA avg,"[5]; Figure 4, 24 hours",15888 copies/mil cells and 7188 copies/mil cells
same,HIV RNA avg,"[5]; Figure 4, 48 hours",8834 copies/mil cells and 9481 copies/mil cells
same,HIV RNA [copies/mil cells] avg,"[5]; 3.5 nM RMD, 6 hours, donor 6",4270 copies/mil cells
same,HIV RNA [copies/mil cells] avg,"[5]; 3.5 nM RMD, 6 hours, donor 7",3321 copies/mil cells
same,HIV RNA [copies/mil cells] avg,"[5]; 3.5 nM RMD, 6 hours, donor 8",816 copies/mil cells
same,HIV RNA [copies/mil cells] avg,"[5]; 3.5 nM RMD, 12 hours, donor 6",3943 copies/mil cells
same,HIV RNA [copies/mil cells] avg,"[5]; 3.5 nM RMD, 12 hours, donor 7",2314 copies/mil cells
same,HIV RNA [copies/mil cells] avg,"[5]; 3.5 nM RMD, 12 hours, donor 8",526 copies/mil cells
same,HIV RNA [copies/mil cells] avg,"[5]; 3.5 nM RMD, 24 hours, donor 6",4673 copies/mil cells
same,HIV RNA [copies/mil cells] avg,"[5]; 3.5 nM RMD, 24 hours, donor 7",2633 copies/mil cells
same,HIV RNA [copies/mil cells] avg,"[5]; 3.5 nM RMD, 24 hours, donor 8",586 copies/mil cells
same,HIV RNA [copies/mil cells] avg,"[5]; 3.5 nM RMD, 48 hours, donor 6",3640 copies/mil cells
same,HIV RNA [copies/mil cells] avg,"[5]; 3.5 nM RMD, 48 hours, donor 7",4009 copies/mil cells
same,HIV RNA [copies/mil cells] avg,"[5]; 3.5 nM RMD, 48 hours, donor 8",769 copies/mil cells
same,HIV RNA [copies/mil cells] avg,"[5]; 15 nM RMD, 6 hours, donor 6",9276 copies/mil cells
same,HIV RNA [copies/mil cells] avg,"[5]; 15 nM RMD, 6 hours, donor 7",5400 copies/mil cells
same,HIV RNA [copies/mil cells] avg,"[5]; 15 nM RMD, 6 hours, donor 8",2254 copies/mil cells
same,HIV RNA [copies/mil cells] avg,"[5]; 15 nM RMD, 12 hours, donor 6",15172 copies/mil cells
same,HIV RNA [copies/mil cells] avg,"[5]; 15 nM RMD, 12 hours, donor 7",4260 copies/mil cells
same,HIV RNA [copies/mil cells] avg,"[5]; 15 nM RMD, 12 hours, donor 8",1826 copies/mil cells
same,HIV RNA [copies/mil cells] avg,"[5]; 15 nM RMD, 24 hours, donor 6",24438 copies/mil cells
same,HIV RNA [copies/mil cells] avg,"[5]; 15 nM RMD, 24 hours, donor 7",9787 copies/mil cells
same,HIV RNA [copies/mil cells] avg,"[5]; 15 nM RMD, 24 hours, donor 8",4270 copies/mil cells
same,HIV RNA [copies/mil cells] avg,"[5]; 15 nM RMD, 48 hours, donor 6",19207 copies/mil cells
same,HIV RNA [copies/mil cells] avg,"[5]; 15 nM RMD, 48 hours, donor 7",13754 copies/mil cells
same,HIV RNA [copies/mil cells] avg,"[5]; 15 nM RMD, 48 hours, donor 8",3470 copies/mil cells
same,HIV RNA [copies/mil cells] avg,"[5]; 45 nM RMD, 6 hours, donor 6",14747 copies/mil cells
same,HIV RNA [copies/mil cells] avg,"[5]; 45 nM RMD, 6 hours, donor 7",6687 copies/mil cells
same,HIV RNA [copies/mil cells] avg,"[5]; 45 nM RMD, 6 hours, donor 8",2352 copies/mil cells
same,HIV RNA [copies/mil cells] avg,"[5]; 45 nM RMD, 12 hours, donor 6",13013 copies/mil cells
same,HIV RNA [copies/mil cells] avg,"[5]; 45 nM RMD, 12 hours, donor 7",9057 copies/mil cells
same,HIV RNA [copies/mil cells] avg,"[5]; 45 nM RMD, 12 hours, donor 8",2763 copies/mil cells
same,HIV RNA [copies/mil cells] avg,"[5]; 45 nM RMD, 24 hours, donor 6",17191 copies/mil cells
same,HIV RNA [copies/mil cells] avg,"[5]; 45 nM RMD, 24 hours, donor 7",14960 copies/mil cells
same,HIV RNA [copies/mil cells] avg,"[5]; 45 nM RMD, 24 hours, donor 8",4744 copies/mil cells
same,HIV RNA [copies/mil cells] avg,"[5]; 45 nM RMD, 48 hours, donor 6",21497 copies/mil cells
same,HIV RNA [copies/mil cells] avg,"[5]; 45 nM RMD, 48 hours, donor 7",14409 copies/mil cells
same,HIV RNA [copies/mil cells] avg,"[5]; 45 nM RMD, 48 hours, donor 8",7107 copies/mil cells
same,induction of HIV transcription,"[5]; resting CD4 T cells, 3.5 nM RMD for 4 hours",minimal induction
same,increase in intracellular HIV RNA levels versus vehicle,"[5]; resting CD4 T cells, 40 nM RMD for 4 hours, peak between 24 and 48 hours",6 fold
same,persistence of intracellular HIV RNA induction,"[5]; resting CD4 T cells, pulse RMD 4 hours, VOR 24 hours, PNB 24 hours, 6 to 48 hours",persisted throughout the 48-hour incubation period
same,expression of CD25 or HLA-DR,[6],did not lead to any changes
same,sequences of HIV RNA collected in culture supernatants,[7],4
